Test results reported in patent US8138166B2, “Method to induce fatty liver in animal” (Taipei Medical University, priority 2010, dated 2012).

Key:
[1] = system: succinate cytochrome c reductase (SCCR), mitochondrial complex II and III; experiment: SCCR activity in hepatocytes; format: in vivo, SD rats; details: experimental group: 60% high fat diet + rotenone i.p., 8 weeks
Text: (§1) SD rats are selected to use as the laboratory animals in the present embodiment. All SD rats are bred at the cages, and adequate feeds and water are given during the adaptive period and the experimental period. After the adaptive period, the SD rats are randomly divided into three groups concluding a control group, an experimental group, and a contrast group, and there are 6 SD rats in each group. In the control group, the SD rats are fed with AIN-93M diet. The SD rats in the experimental group are fed with the modified AIN-93M diet whose fat calorie is accounted for 60% of total calorie thereof, and the mitochondrial inhibitor (rotenone) is injected into the SD rats via an intraperitoneal injection once every two days. The dosage of the rotenone is about 2.5 mg/kg/day. The components of the diet and the fat percentage in the contrast group and the experimental group are the same. Normal saline is injected into the SD rats in the contrast group via the intraperitoneal injection to differentiate from the experimental group. After feeding 8 weeks, the SD rats in each group are sacrificed to collect arteria coeliaca blood and to obtain livers after perfusing 0.9% normal saline thereinto for determining the pathological analysis of the liver, the blood biochemical analysis and the liver biochemical analysis.
(§2) Rotenone is hydrophobic, and can diffuse to organelles including mitochondria. […]

[2] = system: NADH cytochrome c reductase (NCCR), mitochondrial complex I and III; experiment: NCCR activity in hepatocytes; format: in vivo, SD rats; details: experimental group: 60% high fat diet + rotenone i.p., 8 weeks
Text: as §1, §2

liver [3] = experiment: Liver biochemical analysis (liver lipids, TBARS, TNF-α, hydroxyproline); format: in vivo, SD rats; details: experimental group: 60% high fat diet + rotenone i.p., 8 weeks
Text: as §1
The lipid extracts are obtained from the livers of the SD rats in each group to analyze the contents of total cholesterol, triglyceride, and non-esterified fatty acids, as shown below Table 2.
Additionally, if oxidative stress, such as reactive oxygen species (ROS), is increased in vivo, lipid peroxides may be increased. Because the half life of the ROS is shorter than that of the lipid peroxides, the lipid peroxides, such as thiobarbituric acid-reactive-substance (TBARS), are used as the oxidative stress index. The livers of the SD rats in each group are respectively prepared to obtain homogeneous liquids for analyzing the concentration of the TBARS by a fluorophotometer. […] The concentrations of the TBARS in the control group, the experimental group and the contrast group are respectively 0.51±0.05, 2.18±0.19 and 1.15±0.09 μM/mg protein. That means in the experimental group, the oxidative stress in the livers of the SD rats is highest.
In the NAFLD progression, when high oxidative stress is existed in a liver for a long time, inflammatory cytokines, such as tumor necrosis factor-alpha (TNF-α), are increased. After the SD rats are sacrificed, the concentration of the TNF-α is determined to analyze whether the inflammatory response is induced or not. […] The concentrations of TNF-α in the control group, the experimental group, and the contrast group are respectively 13.96±1.05, 21.34±0.77, and 19.51±1.11 pg/mg protein. Following the results as set forth, the livers of rats in the experimental group have the inflammatory response. […] But, once livers are existed in high oxidative stress, the liver injuries thereof from simple steatosis to necrosis or fibrosis are performed. Therefore, the collagen index (i.e. the fibrosis index), hydroxyproline, in the livers should be determined. The concentrations of the hydroxyproline in the control group, the experimental group, and the contrast group are 3.32±1.05, 6.68±0.77, and 4.05±1.11 μg/mg protein, respectively. It indicates the concentration of the hydroxyproline in the experimental group is higher than those of in the control group and the contrast group.

liver [4] = experiment: Liver histopathology (H&E staining) of SD rats fed high fat diet and injected with rotenone; format: in vivo; details: experimental group: 60% high fat diet + rotenone 2.5 mg/kg/day i.p., 8 weeks
Text: as §1
Livers of the SD rats in each group are all stained by H&E staining. […]

mitochondrial complex I = experiment: Mitochondrial complex I activity inferred from NCCR and SCCR activity; format: in vivo, SD rats; details: experimental group: 60% high fat diet + rotenone i.p., 8 weeks; combined NCCR and SCCR results
Text: as §1, §2

[5] = system: cytochrome c oxidase (CCO), mitochondrial complex IV; experiment: CCO activity in hepatocytes; format: in vivo, SD rats; details: experimental group: 60% high fat diet + rotenone i.p., 8 weeks
Text: as §1, §2

Visceral fat weight = format: in vivo, SD rats; details: experimental group: 60% high fat diet + rotenone 2.5 mg/kg/day i.p. once every two days, 8 weeks; epididymis and perirenal adipose tissue
Text: as §1, with “analysis. […]” for “analysis.”

[6] = Blood biochemical analysis and liver function index; format: in vivo, SD rats; details: experimental group: 60% high fat diet + rotenone i.p., 8 weeks
Text: as §1
The blood biochemical analyses of cholesterol, triglyceride, and non-esterified fatty acids are examined. The liver function indexes of aspartate aminotransferase (AST) and alanine aminotransferase (ALT) are also analyzed.

For C=C(C)[C@H]1Cc2c(ccc3c2O[C@@H]2COc4cc(OC)c(OC)cc4[C@@H]2C3=O)O1 [rotenone], the SCCR activity [1] was 0.51 ± 0.05 nmol/cytochrome c reduced/min/mg protein, the NCCR activity [2] was 0.68 ± 0.26 nmol/cytochrome c reduced/min/mg protein and the “concentration of TNF-α” value (liver [3]) was 21.34±0.77 pg/mg protein. The “concentration of hydroxyproline (liver)” value (liver [3]; collagen/fibrosis index) was 6.68±0.77 μg/mg protein, the “concentration of TBARS (liver)” value (liver [3]; liver homogenate, fluorophotometer) was 2.18±0.19 μM/mg protein and the “Non-esterified fatty acids (liver)” value (liver [3]; liver lipid extract) was 5.02 ± 0.38 µmol/g. For the same compound, the “Total cholesterol (liver)” value (liver [3]; liver lipid extract) was 131.74 ± 5.30 mg/dL, the “Triglyceride (liver)” value (liver [3]; liver lipid extract) was 6.78 ± 0.55 mg/dL and the “cell morphology (H&E staining of liver)” value (liver [4]) was “lipid drops and ballooning degeneration”. The “mitochondrial complex I activity versus control group and contrast group” value (mitochondrial complex I) was “lower”, the CCO activity [5] was 5.57 ± 2.88 nmol/cytochrome c oxidized/min/mg protein and the visceral fat weight (Visceral fat weight) was 51.28±3.41 grams. The ALT [6] was 39.4 ± 2.61 IU/L, the AST [6] was 90.1 ± 13.68 IU/L and the “Cholesterol (blood)” value [6] was 73.4 ± 7.61 mg/dL. For the same compound, the “Triglyceride (blood)” value [6] was 60.1 ± 10.15 mg/dL.
